Experimental data from PubChem BioAssay AID504510 (The Scripps Research Institute Molecular Screening Center, 2011).
Calls of active or inactive are those of the source. How the calls were made is not given here.

Test: cytotoxicity in cultured cells, late-stage follow-up, cytotoxicity control for LYPLA1 inhibitor project, cell-based, absorbance, serum-free and serum media, set 2 (AID 504510)
Details: cell viability, serum-free vs serum media

Structure (SMILES) | CC50 (serum-free media) | CC50 (with FCS)
COCC1CCCCN1C(=O)n1ncc(C(O)(c2ccccc2)c2ccccc2)n1 (centres undefined) | > 50 µM (inactive) | > 50 µM (inactive)
CCC1CCCCN1C(=O)n1ncc(C(O)(c2ccccc2)c2ccccc2)n1 (centres undefined) | > 50 µM (inactive) | > 50 µM (inactive)
